Data taken from patent EP0997137B1 (Société des Produits Nestlé S.A., priority 1998, dated 2000).

What was measured:
[1] = system: TNF-α secretion of keratinocytes which are treated with TPA; experiment: TNF-α secretion by TPA-treated immortalized human keratinocytes (ELISA of supernatant); type: cell-based; details: for % of the control: control: TPA without piperonal
Protocol: These keratinocytes (cf. WO97/23602) are treated in this connection with inflammation-promoting substances, more specifically with a known skin irritant in the form of a phorbol ester (12-O-tetradecanoylphorbol acetate, abbreviated to TPA), and as a response to this treatment they display a typical inflammatory metabolic reaction, in particular an increase in the secretion of the inflammation-promoting cytokine TNF-α (tumour necrosis factor alpha).
A substance which inhibits the secretion of TNF-α in the case of TPA-treated keratinocytes in the above model in a dose-dependent manner is regarded as a potentially anti-inflammatory substance.
(§1) Specifically, the test is carried out by subjecting in vitro human keratinocytes, immortalized in culture, to an inflammation-promoting treatment using the abovementioned 12-O-tetradecanoylphorbol 13-acetate (TPA). The immortalized keratinocyte cell lines used are the cell lines DK2, FK2 or else DK7, which are described in the published International Patent Application WO 97/23602. The cell lines FK2 and DK2 were deposited on 5 October 1995 in accordance with the Budapest Treaty at the DSM depository (Deutsche Sammlung für Mikroorganismen und Zellkulturen GmbH, Mascheroder Weg 1b, D-38124 Braunschweig, Germany) and were given the deposit names DSM ACC2240 and DSM ACC2238. The cell line DK7-NR was deposited on 19 March 1998 at the Pasteur Institute, Paris (CNCM) under the number
I-1996. It is also possible to use an immortalized keratinocyte line HaCaT, which is described by Boukamp et al. in J. Cell. Biol., 106, 761-771, 1988).
Petri dishes (6 cm diameter), which contain 4 ml of the serum-free nutrient medium NR-2 (cf. WO97/23602; Biofluids), were inoculated with the abovementioned immortalized keratinocyte cell lines. As soon as confluence of the cell lawn was observed, the nutrient medium was replaced by a fresh, calcium-enriched nutrient medium NR-2 (1.5 mM CaCl2). The dishes were incubated for 2 days, the nutrient medium was replaced by fresh nutrient medium and the dishes were incubated for a further 2 days. […] In parallel, an identical batch without piperonal additive was prepared.
(§2) During the last 24 h of the above mentioned incubation, TPA in ethanol or a corresponding amount of ethanol was added in an amount of 10 ng/ml. The supernatants were then isolated and, by means of a known ELISA assay (Ruwag AG, Zurich, Switzerland) using specific antibodies to TNF-α (BioSource Inter., US, catalogue numbers KHC0012 and KHC3013), the concentration of TNF-α in the supernatant was determined.

keratinocytes = experiment: Cytotoxic activity on the keratinocytes; details: concentrations used in the experiments (0.01-0.1%)
[2] = system: TNF-α secretion of keratinocytes; experiment: Control experiments without TPA: TNF-α secretion by immortalized human keratinocytes (ELISA of supernatant); type: cell-based
Protocol: as §1
Petri dishes (6 cm diameter), which contain 4 ml of the serum-free nutrient medium NR-2 (cf. WO97/23602; Biofluids), were inoculated with the abovementioned immortalized keratinocyte cell lines. As soon as confluence of the cell lawn was observed, the nutrient medium was replaced by a fresh, calcium-enriched nutrient medium NR-2 (1.5 mM CaCl2). The dishes were incubated for 2 days, the nutrient medium was replaced by fresh nutrient medium and the dishes were incubated for a further 2 days.
as §2

[3] = TPA + hydrocortisone (concentration not given)

| Compound | Amount of TNF-α determined ([1]; TPA 10 ng/ml + hydrocortisone (concentration not given)) [pg/mL] | % inhibition [1, 3] [%] | % of the control [1, 3] [%] | cytotoxic activity (keratinocytes) | Amount of TNF-α determined ([1]; TPA 10 ng/ml + 0.01% of piperonal) [pg/mL] | Amount of TNF-α determined ([1]; TPA 10 ng/ml + 0.05% of piperonal) [pg/mL] | Amount of TNF-α determined ([1]; TPA 10 ng/ml + 0.1% of piperonal) [pg/mL] | % of the control ([1]; TPA + 0.01% of piperonal) [%] | % inhibition ([1]; TPA + 0.05% of piperonal) [%] | % of the control ([1]; TPA + 0.05% of piperonal) [%] | % inhibition ([1]; TPA + 0.1% of piperonal) [%] | % of the control ([1]; TPA + 0.1% of piperonal) [%] | Amount of TNF-α determined ([2]; No TPA + 0.01% of piperonal) [pg/mL] | Amount of TNF-α determined ([2]; No TPA + 0.05% of piperonal) [pg/mL] | Amount of TNF-α determined ([2]; No TPA + 0.1% of piperonal) [pg/mL] |
| --- | --- | --- | --- | --- | --- | --- | --- | --- | --- | --- | --- | --- | --- | --- | --- |
| C[C@]12CCC(=O)C=C1CC[C@@H]1[C@@H]2[C@@H](O)C[C@@]2(C)[C@H]1CC[C@]2(O)C(=O)CO [hydrocortisone, reference compound] | 220.4 | 26.4 | 73.6 | – | – | – | – | – | – | – | – | – | – | – | – |
| O=Cc1ccc2c(c1)OCO2 [piperonal, 3,4-(methylenedioxy)benzaldehyde] | – | – | – | does not exhibit cytotoxic activity | 331.2 | 78.1 | 100.6 | 110.6 | 73.9 | 26.1 | 66.4 | 33.6 | 7.9 | 8.9 | 6.3 |
